# Assay results: ChEMBL document CHEMBL3400015, “Tertiary amides of Salinomycin: A new group of antibacterial agents against Bacillus anthracis and methicillin-resistant Staphylococcus epidermidis” (Bioorg Med Chem Lett, 2015)
# Key:
# Format in all cases: functional
# Staphylococcus aureus [1] = assay: Antimicrobial activity against Staphylococcus aureus NCTC 4163 after 18 hrs by twofold serial broth dilution method; settings: NCTC 4163, 18 h
# Staphylococcus aureus [2] = assay: Antimicrobial activity against Staphylococcus aureus ATCC 25923 after 18 hrs by twofold serial broth dilution method; settings: ATCC 25923, 18 h
# Staphylococcus aureus [3] = assay: Antimicrobial activity against Staphylococcus aureus […] after 18 hrs by twofold serial broth dilution method
# [4] = system: Staphylococcus epidermidis; assay: Antimicrobial activity against Staphylococcus epidermidis ATCC 12228 after 18 hrs by twofold serial broth dilution method; settings: ATCC 12228, 18 h
# Escherichia coli [5] = assay: Antimicrobial activity against Escherichia coli ATCC 25922 after 18 hrs by twofold serial broth dilution method; settings: ATCC 25922, 18 h
# Escherichia coli [6] = assay: Antimicrobial activity against Escherichia coli NCTC 8196 after 18 hrs by twofold serial broth dilution method; settings: NCTC 8196, 18 h
# Pseudomonas aeruginosa [7] = assay: Antimicrobial activity against Pseudomonas aeruginosa NCTC 6749 after 18 hrs by twofold serial broth dilution method; settings: NCTC 6749, 18 h
# Pseudomonas aeruginosa [8] = assay: Antimicrobial activity against Pseudomonas aeruginosa ATCC 27853 after 18 hrs by twofold serial broth dilution method; settings: ATCC 27853, 18 h
# Bacillus anthracis = assay: Antimicrobial activity against Bacillus anthracis 34F2 after 18 hrs by twofold serial broth dilution method; settings: 34F2, 18 h
# Staphylococcus aureus [9] = assay: Bactericidal activity against Staphylococcus aureus NCTC 4163 after 24 hrs; settings: NCTC 4163, 24 h, read-out: MBC99.9
# Staphylococcus aureus [10] = assay: Bactericidal activity against Staphylococcus aureus ATCC 25923 after 24 hrs; settings: ATCC 25923, 24 h, read-out: MBC99.9
# Staphylococcus aureus [11] = assay: Bactericidal activity against Staphylococcus aureus ATCC 6538 after 24 hrs; settings: ATCC 6538, 24 h, read-out: MBC99.9
# Staphylococcus aureus [12] = assay: Bactericidal activity against Staphylococcus aureus […] after 24 hrs; settings: read-out: MBC99.9
# [13] = system: Staphylococcus epidermidis; assay: Bactericidal activity against Staphylococcus epidermidis ATCC 35984 after 24 hrs; settings: ATCC 35984, 24 h, read-out: MBC99.9
# Escherichia coli [14] = assay: Bactericidal activity against Escherichia coli ATCC 10538 after 24 hrs; settings: ATCC 10538, 24 h, read-out: MBC99.9
# Escherichia coli [15] = assay: Bactericidal activity against Escherichia coli NCTC 8196 after 24 hrs; settings: NCTC 8196, 24 h, read-out: MBC99.9
# Pseudomonas aeruginosa [16] = assay: Bactericidal activity against Pseudomonas aeruginosa ATCC 15442 after 24 hrs; settings: ATCC 15442, 24 h, read-out: MBC99.9
# Pseudomonas aeruginosa [17] = assay: Bactericidal activity against Pseudomonas aeruginosa NCTC 6749 after 24 hrs; settings: NCTC 6749, 24 h, read-out: MBC99.9
# Pseudomonas aeruginosa [18] = assay: Bactericidal activity against Pseudomonas aeruginosa ATCC 27853 after 24 hrs; settings: ATCC 27853, 24 h, read-out: MBC99.9
# [19] = system: Staphylococcus epidermidis; assay: Antimicrobial activity against methicillin-resistant Staphylococcus epidermidis isolate 404/10 after 18 hrs by twofold serial broth dilution method; settings: isolate 404/10, 18 h
# [20] = system: Staphylococcus epidermidis; assay: Antimicrobial activity against methicillin-resistant Staphylococcus epidermidis isolate 407/10 after 18 hrs by twofold serial broth dilution method; settings: isolate 407/10, 18 h
# [21] = system: Staphylococcus epidermidis; assay: Antimicrobial activity against methicillin-resistant Staphylococcus epidermidis isolate 409/10 after 18 hrs by twofold serial broth dilution method; settings: isolate 409/10, 18 h
# [22] = system: Staphylococcus epidermidis; assay: Antimicrobial activity against methicillin-resistant Staphylococcus epidermidis isolate 422/10 after 18 hrs by twofold serial broth dilution method; settings: isolate 422/10, 18 h
# [23] = system: Staphylococcus epidermidis; assay: Antimicrobial activity against methicillin-resistant Staphylococcus epidermidis isolate 424/10 after 18 hrs by twofold serial broth dilution method; settings: isolate 424/10, 18 h
# [24] = system: Staphylococcus epidermidis; assay: Antimicrobial activity against methicillin-resistant Staphylococcus epidermidis isolate 454/11 after 18 hrs by twofold serial broth dilution method; settings: isolate 454/11, 18 h
# [25] = system: Staphylococcus epidermidis; assay: Antimicrobial activity against methicillin-resistant Staphylococcus epidermidis isolate 458/11 after 18 hrs by twofold serial broth dilution method; settings: isolate 458/11, 18 h
# [26] = system: Staphylococcus epidermidis; assay: Antimicrobial activity against methicillin-resistant Staphylococcus epidermidis isolate 459/11 after 18 hrs by twofold serial broth dilution method; settings: isolate 459/11, 18 h
# [27] = system: Staphylococcus epidermidis; assay: Antimicrobial activity against methicillin-resistant Staphylococcus epidermidis isolate 461/11 after 18 hrs by twofold serial broth dilution method; settings: isolate 461/11, 18 h
# [28] = system: Staphylococcus epidermidis; assay: Antimicrobial activity against methicillin-resistant Staphylococcus epidermidis isolate 469/11 after 18 hrs by twofold serial broth dilution method; settings: isolate 469/11, 18 h
# [29] = system: Staphylococcus epidermidis; assay: Antimicrobial activity against methicillin-resistant Staphylococcus epidermidis isolate 470/11 after 18 hrs by twofold serial broth dilution method; settings: isolate 470/11, 18 h
# [30] = system: Staphylococcus epidermidis; assay: Bactericidal activity against methicillin-resistant Staphylococcus epidermidis isolate 405/10 after 24 hrs; settings: isolate 405/10, 24 h, read-out: MBC99.9
# [31] = system: Staphylococcus epidermidis; assay: Bactericidal activity against methicillin-resistant Staphylococcus epidermidis isolate 407/10 after 24 hrs; settings: isolate 407/10, 24 h, read-out: MBC99.9
# [32] = system: Staphylococcus epidermidis; assay: Bactericidal activity against methicillin-resistant Staphylococcus epidermidis isolate 409/10 after 24 hrs; settings: isolate 409/10, 24 h, read-out: MBC99.9
# [33] = system: Staphylococcus epidermidis; assay: Bactericidal activity against methicillin-resistant Staphylococcus epidermidis isolate 422/10 after 24 hrs; settings: isolate 422/10, 24 h, read-out: MBC99.9
# [34] = system: Staphylococcus epidermidis; assay: Bactericidal activity against methicillin-resistant Staphylococcus epidermidis isolate 424/10 after 24 hrs; settings: isolate 424/10, 24 h, read-out: MBC99.9
# [35] = system: Staphylococcus epidermidis; assay: Bactericidal activity against methicillin-resistant Staphylococcus epidermidis isolate 454/11 after 24 hrs; settings: isolate 454/11, 24 h, read-out: MBC99.9
# [36] = system: Staphylococcus epidermidis; assay: Bactericidal activity against methicillin-resistant Staphylococcus epidermidis isolate 457/11 after 24 hrs; settings: isolate 457/11, 24 h, read-out: MBC99.9
# [37] = system: Staphylococcus epidermidis; assay: Bactericidal activity against methicillin-resistant Staphylococcus epidermidis isolate 460/11 after 24 hrs; settings: isolate 460/11, 24 h, read-out: MBC99.9
# [38] = system: Staphylococcus epidermidis; assay: Bactericidal activity against methicillin-resistant Staphylococcus epidermidis isolate 461/11 after 24 hrs; settings: isolate 461/11, 24 h, read-out: MBC99.9
# [39] = system: Staphylococcus epidermidis; assay: Bactericidal activity against methicillin-resistant Staphylococcus epidermidis isolate 469/11 after 24 hrs; settings: isolate 469/11, 24 h, read-out: MBC99.9
# [40] = system: Staphylococcus epidermidis; assay: Bactericidal activity against methicillin-resistant Staphylococcus epidermidis isolate 470/11 after 24 hrs; settings: isolate 470/11, 24 h, read-out: MBC99.9
smiles,measurement,setting,value
CC[C@@H](C(=O)[C@@H](C)[C@@H](O)[C@H](C)[C@@H]1O[C@@H]([C@@H](CC)C(=O)N2CCOCC2)CC[C@@H]1C)[C@H]1O[C@]2(C=C[C@@H](O)[C@]3(CC[C@@](C)([C@H]4CC[C@](O)(CC)[C@H](C)O4)O3)O2)[C@H](C)C[C@@H]1C,MIC,Staphylococcus aureus [1],256 µg/mL
same,MIC,Staphylococcus aureus [2],128 µg/mL
same,MIC,Staphylococcus aureus [3],256 µg/mL
same,MIC,[4],128 µg/mL
same,MIC,Escherichia coli [5],256 µg/mL
same,MIC,Escherichia coli [6],256 µg/mL
same,MIC,Pseudomonas aeruginosa [7],128 µg/mL
same,MIC,Pseudomonas aeruginosa [8],256 µg/mL
same,MIC,Bacillus anthracis,128 µg/mL
same,MBC,Staphylococcus aureus [9],> 256 µg/mL
same,MBC,Staphylococcus aureus [10],> 256 µg/mL
same,MBC,Staphylococcus aureus [11],> 256 µg/mL
same,MBC,Staphylococcus aureus [12],> 256 µg/mL
same,MBC,[13],> 256 µg/mL
same,MBC,Escherichia coli [14],> 256 µg/mL
same,MBC,Escherichia coli [15],> 256 µg/mL
same,MBC,Pseudomonas aeruginosa [16],> 256 µg/mL
same,MBC,Pseudomonas aeruginosa [17],> 256 µg/mL
same,MBC,Pseudomonas aeruginosa [18],> 256 µg/mL
same,MIC,[19],256 µg/mL
same,MIC,[20],> 256 µg/mL
same,MIC,[21],256 µg/mL
same,MIC,[22],256 µg/mL
same,MIC,[23],256 µg/mL
same,MIC,[24],128 µg/mL
same,MIC,[25],256 µg/mL
same,MIC,[26],128 µg/mL
same,MIC,[27],> 256 µg/mL
same,MIC,[28],> 256 µg/mL
same,MIC,[29],256 µg/mL
same,MBC,[30],> 256 µg/mL
same,MBC,[31],> 256 µg/mL
same,MBC,[32],> 256 µg/mL
same,MBC,[33],> 256 µg/mL
same,MBC,[34],> 256 µg/mL
same,MBC,[35],> 256 µg/mL
same,MBC,[36],> 256 µg/mL
same,MBC,[37],> 256 µg/mL
same,MBC,[38],> 256 µg/mL
same,MBC,[39],> 256 µg/mL
same,MBC,[40],> 256 µg/mL
O=C(O)c1cn(C2CC2)c2cc(N3CCNCC3)c(F)cc2c1=O [CIPROFLOXACIN],MIC,Staphylococcus aureus [1],0.25 µg/mL
same,MIC,Staphylococcus aureus [2],0.5 µg/mL
same,MIC,Staphylococcus aureus [3],0.5 µg/mL
same,MIC,[4],0.25 µg/mL
same,MIC,Pseudomonas aeruginosa [7],0.0625 µg/mL
same,MBC,Staphylococcus aureus [9],0.5 µg/mL
same,MBC,Staphylococcus aureus [10],2 µg/mL
same,MBC,Staphylococcus aureus [12],2 µg/mL
same,MBC,[13],0.5 µg/mL
same,MBC,Escherichia coli [14],0.0016 µg/mL
same,MBC,Escherichia coli [15],0.0016 µg/mL
same,MBC,Pseudomonas aeruginosa [16],0.25 µg/mL
same,MBC,Pseudomonas aeruginosa [17],0.125 µg/mL
same,MBC,Pseudomonas aeruginosa [18],0.25 µg/mL
same,MIC,[19],32 µg/mL
same,MIC,[20],64 µg/mL
same,MIC,[21],2 µg/mL
same,MIC,[22],2 µg/mL
same,MIC,[23],8 µg/mL
same,MIC,[24],0.0625 µg/mL
same,MIC,[25],32 µg/mL
same,MIC,[26],32 µg/mL
same,MIC,[27],0.25 µg/mL
same,MIC,[28],8 µg/mL
same,MIC,[29],0.125 µg/mL
same,MBC,[30],128 µg/mL
same,MBC,[31],> 256 µg/mL
same,MBC,[32],64 µg/mL
same,MBC,[33],64 µg/mL
same,MBC,[34],256 µg/mL
same,MBC,[35],0.25 µg/mL
same,MBC,[36],> 256 µg/mL
same,MBC,[37],0.5 µg/mL
same,MBC,[38],1 µg/mL
same,MBC,[39],128 µg/mL
same,MBC,[40],0.5 µg/mL
